Experimental data published in PubChem BioAssay AID1259411 (Chemical Carcinogenesis Research Information System (CCRIS), 2018).
Calls of active or inactive are those of the source. The rule behind the calls is not given here.

Tested on: rodent carcinogenicity bioassays, tumor incidence
Test: CCRIS carcinogenicity studies
Procedure, shortened: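 NCI-built, expert-reviewed records of carcinogenicity and related test outcomes (mutagenicity, tumor promotion/inhibition) compiled from published and report sources, historical span 1985-2011, not updated.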

## O=C(O)c1ccc([N+](=O)[O-])cc1
Species: MOUSE, Strain/Sex: B6C3F1/FEMALE, Route: ORAL, Dose: 0, 1250, 2500, 5000 PPM IN DIET FOR 103 WK (STUDY DURATION: 104 WK), Dose: 0, 1250, 2500, 5000 PPM IN DIET FOR 103 WK (STUDY DURATION: 104 WK)
  carcinogen call: inactive; negative
Species: MOUSE, Strain/Sex: B6C3F1/MALE, Route: ORAL, Dose: 0, 1250, 2500, 5000 PPM IN DIET FOR 103 WK (STUDY DURATION: 104 WK), Dose: 0, 1250, 2500, 5000 PPM IN DIET FOR 103 WK (STUDY DURATION: 104 WK)
  carcinogen call: inactive; negative
Species: RAT, Strain/Sex: F344/FEMALE, Route: ORAL, Dose: 0, 1250, 2500, 5000 PPM IN DIET FOR 103 WK (STUDY DURATION: 104 WK), Dose: 0, 1250, 2500, 5000 PPM IN DIET FOR 103 WK (STUDY DURATION: 104 WK), Tumor Site: Type of Lesion: CLITORAL GLAND: ADENOMA, ADENOMA OR CARCINOMA
  carcinogen call: active; positive
Species: RAT, Strain/Sex: F344/MALE, Route: ORAL, Dose: 0, 1250, 2500, 5000 PPM IN DIET FOR 103 WK (STUDY DURATION: 104 WK), Dose: 0, 1250, 2500, 5000 PPM IN DIET FOR 103 WK (STUDY DURATION: 104 WK)
  carcinogen call: inactive; negative

## OC(Cn1cncn1)(Cn1cncn1)c1ccc(F)cc1F
Species: RAT, Strain/Sex: SPRAGUE-DAWLEY/FEMALE, Route: ORAL, Dose: 0, 2.5, 5, 10 MG/KG IN DIET FOR 24 MO (STUDY DURATION: 24 MO), Dose: 0, 2.5, 5, 10 MG/KG IN DIET FOR 24 MO (STUDY DURATION: 24 MO)
  carcinogen call: inactive; negative
Species: RAT, Strain/Sex: SPRAGUE-DAWLEY/MALE, Route: ORAL, Dose: 0, 2.5, 5, 10 MG/KG IN DIET FOR 24 MO (STUDY DURATION: 24 MO), Dose: 0, 2.5, 5, 10 MG/KG IN DIET FOR 24 MO (STUDY DURATION: 24 MO), Tumor Site: Type of Lesion: LIVER: HEPATOCELLULAR ADENOMA
  carcinogen call: active; positive

## CC1=NN(c2ccccc2)C(=O)C1
Species: MOUSE, Strain/Sex: B6C3F1/FEMALE, Route: ORAL, Dose: 0, 7500, 15000 PPM IN DIET, Dose: 0, 7500, 15000 PPM IN DIET
  carcinogen call: inactive; negative
Species: MOUSE, Strain/Sex: B6C3F1/MALE, Route: ORAL, Dose: 0, 7500, 15000 PPM IN DIET, Dose: 0, 7500, 15000 PPM IN DIET
  carcinogen call: inactive; negative
Species: RAT, Strain/Sex: F344/FEMALE, Route: ORAL, Dose: 0, 2500, 5000 PPM IN DIET, Dose: 0, 2500, 5000 PPM IN DIET
  carcinogen call: inactive; negative
Species: RAT, Strain/Sex: F344/MALE, Route: ORAL, Dose: 0, 2500, 5000 PPM IN DIET, Dose: 0, 2500, 5000 PPM IN DIET
  carcinogen call: inactive; negative

## C[C@@H]1O[C@@H](OC[C@H]2O[C@@H](Oc3cc4c(O)cc(O)cc4[o+]c3-c3ccc(O)c(O)c3)[C@H](O)[C@@H](O)[C@@H]2O)[C@H](O)[C@H](O)[C@H]1O
Species: RAT, Strain/Sex: WISTAR/FEMALE, Route: ORAL, Dose: 0, 1.7, 4.1 G/KG/D IN DIET FOR 2 YR (STUDY DURATION: 2 YR), Dose: 0, 1.7, 4.1 G/KG/D IN DIET FOR 2 YR (STUDY DURATION: 2 YR)
  carcinogen call: inactive; negative
Species: RAT, Strain/Sex: WISTAR/MALE, Route: ORAL, Dose: 0, 1.5, 3.7 G/KG/D DIET FOR 2 YR (STUDY DURATION: 2 YR), Dose: 0, 1.5, 3.7 G/KG/D DIET FOR 2 YR (STUDY DURATION: 2 YR)
  carcinogen call: inactive; negative

## C=CC1CC=CCC1 (stereo unspecified)
Species: MOUSE, Strain/Sex: B6C3F1/FEMALE, Route: GAVAGE, Dose: 0, 200, 400 MG/KG IN CORN OIL 5 D/WK FOR 103 WK, Dose: 0, 200, 400 MG/KG IN CORN OIL 5 D/WK FOR 103 WK, Tumor Site: Type of Lesion: OVARIES: BENIGN MIXED TUMOR, GRANULOSA CELL TUMOR, GRANULOSA CELL TUMOR OR CARCINOMA
  carcinogen call: active; positive

## Cc1ccc(N)cc1
Species: MOUSE, Route: ORAL, Tumor Site: Type of Lesion: LIVER
  carcinogen call: active; positive

## c1ccc2c(c1)ccc1c2ccc2c3ccccc3ccc21
Species: MOUSE, Strain/Sex: NMRI/FEMALE, Route: DERMAL, Dose: 0, 136, 448, 1358 NMOL (TOTAL DOSE) APPLIED AS 1 DROP OF ACETONE SOLUTION 3/WK FOR DURATION OF STUDY (STUDY DURATION: 11, Dose: 0, 136, 448, 1358 NMOL (TOTAL DOSE) APPLIED AS 1 DROP OF ACETONE SOLUTION 3/WK FOR DURATION OF STUDY (STUDY DURATION: 11, Tumor Site: Type of Lesion: SKIN: PAPILLOMA
  carcinogen call: active; positive
Species: MOUSE, Strain/Sex: NMRI/FEMALE, Route: SUBCUTANEOUS, Dose: 0, 36, 40, 108, 308, 399 NMOL IN TRICAPRYLIN ONCE (STUDY DURATION: 112 WK), Dose: 0, 36, 40, 108, 308, 399 NMOL IN TRICAPRYLIN ONCE (STUDY DURATION: 112 WK), Tumor Site: Type of Lesion: INJECTION SITE: FIBROSARCOMA
  carcinogen call: active; positive
Species: MOUSE, Strain/Sex: NMRI/FEMALE, Route: SUBCUTANEOUS, Dose: 0, 40, 400 NMOL IN 0.05 ML OF AN AQUEOUS SOLUTION CONTAINING 1% (W/W) GELATIN 0.9% (W/W) SODIUM CHLORIDE AND 0.4% (W/W), Dose: 0, 40, 400 NMOL IN 0.05 ML OF AN AQUEOUS SOLUTION CONTAINING 1% (W/W) GELATIN 0.9% (W/W) SODIUM CHLORIDE AND 0.4% (W/W), Tumor Site: Type of Lesion: LUNG: ADENOMA
  carcinogen call: active; positive

## [C-]#[Si+]
Species: RAT, Strain/Sex: AF/HAN, Route: INHALATION, Dose: 0, 1000 FIBERS/ML IN AIR 7 HR/D 5 D/WK FOR 1 YR (STUDY DURATION: LIFESPAN), Tumor Site: Type of Lesion: LUNG: ADENOMA, CARCINOMA
  carcinogen call: active; positive
Species: RAT, Strain/Sex: F344/FEMALE, Route: INTRAPERITONEAL, Dose: 0, 20 MG SILICON CARBIDE WHISKERS ONCE (STUDY DURATION: LIFESPAN), Tumor Site: Type of Lesion: PLEURAL CAVITY: MESOTHELIOMA
  carcinogen call: active; positive

## CC(C)CN(N=O)C(N)=O
Species: RAT, Strain/Sex: DONRYU/FEMALE, Route: ORAL, Dose: 100, 200, 400 PPM IN DRINKING WATER, Dose: 100, 200, 400 PPM IN DRINKING WATER, Tumor Site: Type of Lesion: DUODENUM: BENIGN HEMANGIOENDOTHELIOMA, MALIGNANT HEMANGIOENDOTHELIOMA
  carcinogen call: active; positive

## NC(=S)Nc1ccccc1
Species: MOUSE, Strain/Sex: B6C3F1/FEMALE, Route: ORAL, Dose: 0, 150, 300 PPM IN DIET, Dose: 0, 150, 300 PPM IN DIET
  carcinogen call: inactive; negative
Species: MOUSE, Strain/Sex: B6C3F1/MALE, Route: ORAL, Dose: 0, 150, 300 PPM IN DIET, Dose: 0, 150, 300 PPM IN DIET
  carcinogen call: inactive; negative
Species: RAT, Strain/Sex: F344/FEMALE, Route: ORAL, Dose: 0, 60, 120 PPM IN DIET, Dose: 0, 60, 120 PPM IN DIET
  carcinogen call: inactive; negative
Species: RAT, Strain/Sex: F344/MALE, Route: ORAL, Dose: 0, 60, 120 PPM IN DIET, Dose: 0, 60, 120 PPM IN DIET
  carcinogen call: inactive; negative

## CN(C)c1ccc(C(=C2C=CC(=[N+](C)C)C=C2)c2ccccc2)cc1
Species: MOUSE, Strain/Sex: B6C3F1/FEMALE, Route: ORAL (DIET), Dose: 0, 100, 225, 450 PPM IN DIET FOR 2 YRS, Dose: 0, 100, 225, 450 PPM IN DIET FOR 2 YRS
  carcinogen call: inactive; negative
Species: RAT, Strain/Sex: F344/N/FEMALE, Route: ORAL (DIET), Dose: 0, 100, 300, 600 PPM IN DIET FOR 2 YRS, Dose: 0, 100, 300, 600 PPM IN DIET FOR 2 YRS, Tumor Site: Type of Lesion: THYROID: FOLLICULAR CELL ADENOMA OR CARCINOMA, LIVER: HEPATOCELLULAR ADENOMA, MAMMARY GLAND: CARCINOMA, Tumor Site: Type of Lesion: THYROID: FOLLICULAR CELL ADENOMA OR CARCINOMA, LIVER: HEPATOCELLULAR ADENOMA, MAMMARY GLAND: CARCINOMA
  carcinogen call: equivocal; none of the tumor incidences reached statistical significance; in som
